Source: patent US7655804B2, “Diketohydrazine derivative compounds and drugs containing the compounds as the active ingredient” (Ono Pharmaceutical Co., Ltd., priority 2002, dated 2010)

Molecular target: T1, cathepsin K (Homo sapiens, UniProt P43235)
T1 sequence (P43235 115-329): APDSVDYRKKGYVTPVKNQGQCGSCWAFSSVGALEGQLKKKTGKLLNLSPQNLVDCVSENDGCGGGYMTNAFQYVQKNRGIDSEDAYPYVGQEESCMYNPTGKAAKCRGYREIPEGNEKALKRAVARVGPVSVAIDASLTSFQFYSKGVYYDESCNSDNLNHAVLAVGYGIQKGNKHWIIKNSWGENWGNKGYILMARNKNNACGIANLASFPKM
Experiment: Measurement of cathepsin K inhibitory activity
Type: biochemical
Settings: Dixon plot, 37° C., pH 5.5
Protocol: 65 μL of cathepsin K enzyme reaction buffer (50 mmol/L of 2-(N-morpholino)ethanesulfonate, 2 mmol/L of ethylenediaminetetraacetate (EDTA) and 4 mmol/L of dithiothreitol (DTT) were mixed to adjust to pH 5.5), 5 μL of cysteine protease inhibitor solution of several concentrations, 20 μL of synthesized substrate (t-butyloxycarbonyl-L-alanyl-glycyl-L-prolyl-L-arginine-4-methyl-chromanyl-7-amide) solution of several concentrations and 10 μL of cathepsin K enzyme solution were mixed and the increase of fluorescence intensity when reacted at 37° C. was measured (λex (excitation wavelength)=355 nm, λem (fluorescence wavelength)=460 nm). As to the substrate and the compound of the present invention, enzyme reactions were carried out in combination of several appropriate concentrations and Dixon plotting was prepared, to define the absolute value of X-coordinate of the intersection point of the graph as Ki value.

Compound	Ki [nM]
CC(C)(C)CC(NC(=O)C1CCCCCC1)C(=O)C(=O)NN1CCCS1(=O)=O (stereo not drawn) [2(6)]	14
CC(C)C[C@H](NC(=O)C1CCCCC1)C(=O)C(=O)NN=C1SCCN1C [8(1)]	2.5
CC(C)(C)CC(NC(=O)C1CCCCC1)C(=O)C(=O)NN1C(=O)CCC1=O (stereo not drawn) [example 5]	4
